Experimental data from ChEMBL document CHEMBL3046345, “Synthesis of novel pyrazole and pyrimidine derivatives bearing sulfonamide moiety as antitumor and radiosensitizing agents” (Med Chem Res, 2012).

Experiments:
MCF7 = test: Anticancer activity against Homo sapiens (human) MCF7 cells after 48 hr by SRB assay; type: functional, cell-based; settings: MCF7, 48 h
HepG2 [1] = test: Potentiation of gamma-irradiation-induced cytotoxicity against Homo sapiens (human) HepG2 cells at 5 uM relative to control; type: functional
HepG2 [2] = test: Cytotoxicity against Homo sapiens (human) HepG2 cells at 25 uM relative to control; type: functional
HepG2 [3] = test: Potentiation of gamma-irradiation-induced cytotoxicity against Homo sapiens (human) HepG2 cells at 12.5 uM relative to control; type: functional
HepG2 [4] = test: Potentiation of gamma-irradiation-induced cytotoxicity against Homo sapiens (human) HepG2 cells at 40 uM relative to control; type: functional
HepG2 [5] = test: Cytotoxicity against Homo sapiens (human) HepG2 cells at 5 uM relative to control; type: functional
HepG2 [6] = test: Cytotoxicity against Homo sapiens (human) HepG2 cells at 12.5 uM relative to control; type: functional
HepG2 [7] = test: Potentiation of gamma-irradiation-induced cytotoxicity against Homo sapiens (human) HepG2 cells at 25 uM relative to control; type: functional
HepG2 [8] = test: Anticancer activity against Homo sapiens (human) HepG2 cells after 48 hr by SRB assay; type: functional, cell-based; settings: HepG2, 48 h
HepG2 [9] = test: Cytotoxicity against Homo sapiens (human) HepG2 cells at 40 uM relative to control; type: functional

Row | Compound | IC50 (MCF7) [µM] | Activity (HepG2 [1]) [%] | Activity (HepG2 [2]) [%] | Activity (HepG2 [3]) [%] | Activity (HepG2 [4]) [%] | Activity (HepG2 [5]) [%] | Activity (HepG2 [6]) [%] | Activity (HepG2 [7]) [%] | IC50 (HepG2 [8]) [µM] | Activity (HepG2 [9]) [%]
1 | NC1=NN(c2ccccc2)C(=O)/C1=C/Nc1ccc(S(=O)(=O)Nc2ccccn2)cc1 | 5.1 | 62.1 | 66.9 | 80.8 | 91.8 | 39.49 | 57.82 | 76.7 | 3.49 | 80.2
2 | Cc1cc(C)nc(NS(=O)(=O)c2ccc(N/C=C3/C(=N)N(c4ccccc4)N=C3N)cc2)n1 | 6.98 | 75.69 | 74.3 | 86 | 88.4 | 47.94 | 64.14 | 92.9 | 3.76 | 80.7
3 | N=C1NN=C(N)/C1=C\Nc1ccc(S(=O)(=O)Nc2cnc3ccccc3n2)cc1 | 7.78 | 53.6 | 73.2 | 67 | 88.2 | 18.15 | 55.27 | 80.6 | 3.22 | 85.8
4 | NC1=NN(c2ccccc2)C(=O)/C1=C/Nc1ccc(S(=O)(=O)Nc2cnc3ccccc3n2)cc1 | 6.71 | 57.1 | 76.15 | 77.8 | 88.5 | 40.36 | 65.3 | 93.5 | 3.21 | 79.39
5 | Cc1cc(C)nc(NS(=O)(=O)c2ccc(-n3cc(C#N)c(=O)n(-c4ccccc4)c3=S)cc2)n1 | 5.63 | 47.2 | 62.2 | 70.8 | 87.3 | 19.98 | 49.12 | 77.5 | 3.49 | 79.6
